The record followed here is ChEMBL document CHEMBL1201862, “PubChem BioAssay data set” (2004).

Among the test systems are SF-268; PC-3; DU-145; KM12; COLO 205; SNB-75; HT-29; HOP-62; SK-MEL-5; OVCAR-4; LOX IMVI; SF-539; MDA-MB-435; SK-MEL-28; SW-620; A549; T47D; NCI-H522; A498; BT-549.
What all share (test): NCI-60 cell line screen, 48 h

Each structure is given as a SMILES string.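 Cells were grown in 96-well plates and exposed to each compound for 48 hours at five concentrations; endpoints were interpolated linearly between bracketing concentrations, or set to the highest concentration if not reached. GI50 is the concentration that inhibits growth by half.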 Activity calls are given as the source filed them. No stated cut-off is given here; in the data, active = GI50 up to about 1.1 µM and inactive = higher.

As for `c1ccc2c(c1)c1c(n2CCOCCN2CCCC2)CCCC1`, the GI50 in the test on SF-268 was 29 µM (inactive); in the test with PC-3, 18.6 µM (inactive); in the test on DU-145, 30.3 µM (inactive); in the test with KM12, > 10 µM (inactive); in the test with COLO 205 it was 19.5 µM (inactive); in the test with SNB-75, 27.3 µM (inactive). Also, the GI50 in the test with HT-29 was 20 µM (inactive); in the test on HOP-62, 15.5 µM (inactive); in the test on SK-MEL-5 it was 15.2 µM (inactive); in the test with OVCAR-4, 16.8 µM (inactive); with LOX IMVI it was 18.5 µM (inactive); with SF-539, 14.5 µM (inactive). The GI50 is 18.9 µM (inactive) in the test with MDA-MB-435; 16 µM (inactive) in the test on SK-MEL-28; 16.2 µM (inactive) in the test on SW-620; 28.1 µM (inactive) with A549; 28.7 µM (inactive) in the test on T47D.

For `CC1(C)O[C@@H](CO)[C@H]([C@@]23OC[C@H]4OC(C)(C)OC4[C@@H]2OC(C)(C)O3)O1` (stereo partly specified), the GI50 in the test on SF-268, in the test on PC-3, with DU-145, in the test on KM12, in the test with COLO 205 and with SNB-75 was > 100 µM (inactive) in each case. In addition, the GI50 is > 100 µM (inactive) in the test on HT-29; > 100 µM (inactive) in the test on HOP-62; 20.3 µM (inactive) in the test on SK-MEL-5; > 100 µM (inactive) in the test on NCI-H522; > 100 µM (inactive) in the test with OVCAR-4; > 100 µM (inactive) in the test with LOX IMVI. Besides, the GI50 in the test on MDA-MB-435, with SK-MEL-28, in the test on SW-620, in the test with A549 and in the test on T47D was > 100 µM (inactive) throughout.

Consider `Cc1ccc(NC2=NCCO2)c2c1CCC2`, for which the GI50 with SF-268 was 41.8 µM (inactive); with PC-3 it was 25.4 µM (inactive); with DU-145 it was 63.2 µM (inactive); with KM12, 30.3 µM (inactive); with COLO 205 it was 23.6 µM (inactive); with SNB-75, 32.9 µM (inactive). Moreover, the GI50 is 33.3 µM (inactive) in the test on HT-29; 41.6 µM (inactive) in the test on A498; 27.9 µM (inactive) with HOP-62; 17.5 µM (inactive) with SK-MEL-5; 45.8 µM (inactive) in the test on NCI-H522; 48.9 µM (inactive) in the test with OVCAR-4. Further, the GI50 in the test on LOX IMVI was 22.8 µM (inactive); in the test on SF-539, 22 µM (inactive); with MDA-MB-435, 20.5 µM (inactive); in the test with SK-MEL-28, 32.8 µM (inactive); in the test with SW-620, 46.9 µM (inactive); with A549, 41.7 µM (inactive). Moreover, the GI50 with T47D was 51.3 µM (inactive).

Consider `CNC(=O)C1CCCN1C(=O)C(Cc1c[nH]cn1)NC(=O)C1CCC(=O)N1` (stereo unspecified), for which the GI50 with SF-268, in the test with PC-3, in the test with DU-145, with KM12, in the test on COLO 205 and in the test with BT-549 was > 100 µM (inactive) in each case. In addition, the GI50 in the test on SNB-75, in the test with HT-29, in the test on HOP-62, in the test on SK-MEL-5, in the test on NCI-H522 and with OVCAR-4 was > 100 µM (inactive) each time. Further, the GI50 in the test on LOX IMVI, with MDA-MB-435, with SK-MEL-28, in the test on SW-620, in the test on A549 and in the test with T47D was > 100 µM (inactive) in each case.

On to `N/C(=N\N=C=C1C(=O)Nc2ccc(F)cc21)NO`, for which the GI50 in the test on SF-268 is > 100 µM (inactive); with KM12, 41.4 µM (inactive); in the test with COLO 205 it was > 100 µM (inactive); with SNB-75, 21.3 µM (inactive); with HT-29, > 100 µM (inactive); in the test on A498, > 100 µM (inactive). Further, the GI50 in the test on HOP-62 is > 100 µM (inactive); in the test with SK-MEL-5 it was > 100 µM (inactive); in the test with NCI-H522 it was 86.1 µM (inactive); in the test on OVCAR-4, > 100 µM (inactive); in the test on LOX IMVI, > 100 µM (inactive); in the test with SF-539, > 100 µM (inactive). For the same molecule, the GI50 with SK-MEL-28, in the test with SW-620 and with A549 was > 100 µM (inactive) each time.

For `O=C(NN=C1CCCCC1)Nc1ccccc1Cl`, the GI50 is 41.1 µM (inactive) in the test with SF-268; > 100 µM (inactive) in the test on PC-3; 86.1 µM (inactive) with DU-145; 38.3 µM (inactive) in the test on KM12; 31.3 µM (inactive) in the test with COLO 205; 64.4 µM (inactive) with BT-549. In addition, the GI50 in the test with SNB-75 was 2.82 µM (inactive); in the test on HT-29, 36.3 µM (inactive); with SK-MEL-5, 27.3 µM (inactive); with NCI-H522 it was 23.1 µM (inactive); with OVCAR-4, > 100 µM (inactive); in the test on LOX IMVI, 53.7 µM (inactive). In addition, the GI50 is 32.5 µM (inactive) with SF-539; 16.6 µM (inactive) with MDA-MB-435; 79.3 µM (inactive) in the test on SK-MEL-28; 43.8 µM (inactive) in the test on SW-620; 81.7 µM (inactive) in the test with A549; 29.5 µM (inactive) in the test on T47D.

For the molecule `Nc1ccc(-c2nc3ccccc3s2)cc1F`, the GI50 is 34 µM (inactive) with SF-268; 21.4 µM (inactive) with PC-3; 30.2 µM (inactive) in the test on DU-145; 28.5 µM (inactive) in the test on KM12; 20.9 µM (inactive) in the test with COLO 205; 68.4 µM (inactive) with BT-549. Besides, the GI50 in the test on SNB-75 is 21.5 µM (inactive); with HT-29, 29.2 µM (inactive); in the test on A498, 0.0775 µM (active); with HOP-62, 30.7 µM (inactive); in the test on SK-MEL-5 it was 20 µM (inactive); in the test with NCI-H522, 20.9 µM (inactive). Moreover, the GI50 in the test on OVCAR-4 was 18.7 µM (inactive); with LOX IMVI, 44.7 µM (inactive); in the test with MDA-MB-435, 31.6 µM (inactive); in the test with SK-MEL-28 it was 46.6 µM (inactive); with SW-620, 42.3 µM (inactive); in the test with A549 it was 21.3 µM (inactive).

Turning to `O=C(Cc1ccccc1)NNc1nc(NNC(=O)c2ccncc2)nc(Nc2ccccc2)n1`, the GI50 in the test on SF-268, in the test with DU-145, in the test on KM12, in the test with COLO 205, with BT-549 and in the test on SNB-75 was > 10 µM (inactive) in each case. Further, the GI50 in the test on HT-29, with HOP-62, in the test on OVCAR-4, in the test with LOX IMVI, in the test on SF-539 and with SK-MEL-28 was > 10 µM (inactive) throughout. Also, the GI50 with T47D was > 10 µM (inactive).

With `CC(=O)NCC1(c2ccccc2)CCN(CC2COc3ccccc3O2)CC1` (stereo unspecified) [ACOXATRINE], the GI50 in the test with SF-268, in the test on PC-3, in the test on DU-145, in the test with KM12, in the test with COLO 205 and in the test with SNB-75 was > 100 µM (inactive) in each case. Moreover, the GI50 with HT-29 was 39.4 µM (inactive); in the test on A498, > 100 µM (inactive); in the test on HOP-62, > 100 µM (inactive); with SK-MEL-5, > 100 µM (inactive); in the test with NCI-H522 it was > 100 µM (inactive); with OVCAR-4, > 100 µM (inactive). Further, the GI50 in the test with LOX IMVI is 62.2 µM (inactive); in the test on SF-539, > 100 µM (inactive); in the test with MDA-MB-435, > 100 µM (inactive); with SK-MEL-28, > 100 µM (inactive); in the test with SW-620, > 100 µM (inactive); with A549, > 100 µM (inactive). Further, the GI50 in the test with T47D is > 100 µM (inactive).

Consider `C=C(C)[C@H]1CC(=O)/C(C)=C\CC/C(C)=C/CC[C@@]2(C)O[C@@H]2C1`, for which the GI50 with SF-268 was 23 µM (inactive); with PC-3, 24.8 µM (inactive); in the test with DU-145 it was 17.7 µM (inactive); with KM12 it was 20.8 µM (inactive); with COLO 205, 16.5 µM (inactive); with BT-549, 47.6 µM (inactive). Also, the GI50 in the test with SNB-75 was 41.4 µM (inactive); in the test on HT-29, 16.3 µM (inactive); in the test on A498, > 100 µM (inactive); in the test with HOP-62, 40.2 µM (inactive); in the test on SK-MEL-5 it was 23.7 µM (inactive); with OVCAR-4, 22 µM (inactive). Moreover, the GI50 in the test with LOX IMVI is 10.9 µM (inactive); in the test with SF-539 it was 20 µM (inactive); with MDA-MB-435, 17 µM (inactive); in the test on SK-MEL-28, 19.2 µM (inactive); in the test with SW-620 it was 46.3 µM (inactive); with A549, 15.8 µM (inactive).

Regarding `c1ccc(/N=c2/sc3ccccc3s/c2=N/c2ccccc2)cc1`, the GI50 with SF-268 was 3.12 µM (inactive); with PC-3, 12.8 µM (inactive); in the test with DU-145 it was 5.02 µM (inactive); with KM12, 1.99 µM (inactive); with COLO 205 it was 1.92 µM (inactive); in the test on SNB-75, 2.82 µM (inactive). The GI50 was 2.08 µM (inactive) with HT-29; 2.33 µM (inactive) in the test with A498; 4.45 µM (inactive) in the test with HOP-62; 1.99 µM (inactive) in the test with SK-MEL-5; 1.56 µM (inactive) in the test with NCI-H522; 2.02 µM (inactive) in the test with OVCAR-4. The GI50 in the test on LOX IMVI is 1.7 µM (inactive); in the test with SF-539 it was 1.88 µM (inactive); with MDA-MB-435 it was 1.9 µM (inactive); in the test on SK-MEL-28 it was 1.81 µM (inactive); in the test on SW-620 it was 1.72 µM (inactive); in the test with A549 it was 2.54 µM (inactive). Further, the GI50 with T47D is 1.65 µM (inactive).
